# Results reported in patent publication US20190008837A1, “OPHTHALMIC COMPOSITIONS AND ASSOCIATED METHODS” (University of Utah Research Foundation, priority 2016, published 2019).
# System: cornea neuron fibers of scratched corneas
# Assay: Cornea scratch model, cornea neuron regeneration on flatmounts (Example 1)
# Assay type: in vivo, mice
# Details: eye drops 3 times per day for 5 days, corneas harvested on the 7th day, beta III tubulin staining
# Procedure: Nine mice were divided into three treatment groups having three mice each. The corneas of each of the mice in each of the groups were scratched. The control group was administered a standard blank (e.g. pacebo) composition. The first treatment group received pergolide. The second treatment group received cabergoline. Each of the eye drops was applied 3 times per day for 5 days. The corneas were harvested on the 7th day. The corneas were then fixed in acetone for 1 hour at room temperature and then blocked in 3% BSA for 1 hour. The cornea flatmounts were stained with primary antibody, anti-beta III tubulin antibody (rabbit polyclonal, ab18207) at 1:200 in 3% BSA blocking buffer overnight at 4° C. After washing 3 times for 10 minutes, each of the cornea flatmounts were incubated with secondary antibody (goat anti rabbit, Invitrogen Alexa Fluor 555) at 1:200 in 3% BSA for 1 hour at room temperature. The flatmounts were again washed 3 times for 10 minutes each. Images of the cornea neuron fibers were taken and analyzed under EVOS microscopy.
smiles,measurement,value
C=CCN1C[C@H](C(=O)N(CCCN(C)C)C(=O)NCC)C[C@@H]2c3cccc4[nH]cc(c34)C[C@H]21 [cabergoline],cornea neuron regeneration compared to the blank control group,no neuron regeneration
